Tests used:
BRM = target: T1, BRM (Homo sapiens, UniProt P51531); test: ATPase catalytic activity of BRM, ADP-Glo in vitro biochemical assay; settings: ATPase catalytic activity, 30 nM BRM, 400 μM ATP, read-out: BRM IP50 (μM)*
T1 construct: made in house; host or cells: High Five insect cells

BRG-1 = target: T2, BRG-1 (Homo sapiens, UniProt P51532); test: ATPase catalytic activity of BRG-1, ADP-Glo in vitro biochemical assay; settings: ATPase catalytic activity, 30 nM BRG-1, 400 μM ATP, read-out: BRG1 IP50 (μM)*
T2 construct: made in house; host or cells: High Five insect cells
T2 sequence (P51532 whole entry): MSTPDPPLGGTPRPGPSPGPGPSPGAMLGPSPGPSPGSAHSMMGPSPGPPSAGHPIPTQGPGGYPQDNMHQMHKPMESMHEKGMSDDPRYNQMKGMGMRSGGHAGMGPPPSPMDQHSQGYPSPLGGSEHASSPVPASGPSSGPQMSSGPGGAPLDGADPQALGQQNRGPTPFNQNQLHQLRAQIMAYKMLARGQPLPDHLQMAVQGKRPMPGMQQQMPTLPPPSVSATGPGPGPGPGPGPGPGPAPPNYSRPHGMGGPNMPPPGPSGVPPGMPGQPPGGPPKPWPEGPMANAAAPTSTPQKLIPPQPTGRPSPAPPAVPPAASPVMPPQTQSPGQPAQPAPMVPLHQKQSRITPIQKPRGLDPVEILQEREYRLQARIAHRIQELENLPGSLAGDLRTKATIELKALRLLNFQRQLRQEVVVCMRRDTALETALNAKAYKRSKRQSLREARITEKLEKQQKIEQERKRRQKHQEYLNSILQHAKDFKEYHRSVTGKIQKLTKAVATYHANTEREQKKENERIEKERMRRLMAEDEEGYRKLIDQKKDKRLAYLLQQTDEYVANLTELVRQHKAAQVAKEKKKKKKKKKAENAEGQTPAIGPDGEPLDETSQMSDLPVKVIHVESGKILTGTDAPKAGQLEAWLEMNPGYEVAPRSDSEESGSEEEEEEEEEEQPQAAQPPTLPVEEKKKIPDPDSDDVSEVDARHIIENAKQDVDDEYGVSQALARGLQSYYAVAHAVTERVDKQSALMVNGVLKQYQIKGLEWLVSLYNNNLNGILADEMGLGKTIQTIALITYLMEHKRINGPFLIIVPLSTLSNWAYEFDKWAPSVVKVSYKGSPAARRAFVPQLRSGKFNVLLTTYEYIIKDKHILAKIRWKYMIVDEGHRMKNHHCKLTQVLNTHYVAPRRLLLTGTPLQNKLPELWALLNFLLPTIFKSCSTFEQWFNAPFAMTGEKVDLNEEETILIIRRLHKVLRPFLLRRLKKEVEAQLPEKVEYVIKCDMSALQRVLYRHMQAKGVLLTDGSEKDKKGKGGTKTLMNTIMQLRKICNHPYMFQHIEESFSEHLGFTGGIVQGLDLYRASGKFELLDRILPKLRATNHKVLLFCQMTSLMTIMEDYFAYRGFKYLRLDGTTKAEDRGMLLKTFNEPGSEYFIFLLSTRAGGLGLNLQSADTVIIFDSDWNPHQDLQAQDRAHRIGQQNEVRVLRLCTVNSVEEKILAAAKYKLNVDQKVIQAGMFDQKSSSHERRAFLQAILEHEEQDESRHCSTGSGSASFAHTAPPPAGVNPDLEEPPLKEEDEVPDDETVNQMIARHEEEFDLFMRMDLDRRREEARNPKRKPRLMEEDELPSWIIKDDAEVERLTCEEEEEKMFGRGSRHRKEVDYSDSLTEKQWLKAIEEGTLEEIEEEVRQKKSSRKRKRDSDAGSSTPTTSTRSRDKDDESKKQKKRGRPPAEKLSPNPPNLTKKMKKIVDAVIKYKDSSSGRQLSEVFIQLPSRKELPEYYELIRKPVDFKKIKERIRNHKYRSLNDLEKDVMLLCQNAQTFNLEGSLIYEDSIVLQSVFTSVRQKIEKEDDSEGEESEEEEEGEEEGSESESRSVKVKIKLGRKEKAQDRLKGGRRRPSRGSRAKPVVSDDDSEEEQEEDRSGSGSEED

T1 sequence (P51531 whole entry): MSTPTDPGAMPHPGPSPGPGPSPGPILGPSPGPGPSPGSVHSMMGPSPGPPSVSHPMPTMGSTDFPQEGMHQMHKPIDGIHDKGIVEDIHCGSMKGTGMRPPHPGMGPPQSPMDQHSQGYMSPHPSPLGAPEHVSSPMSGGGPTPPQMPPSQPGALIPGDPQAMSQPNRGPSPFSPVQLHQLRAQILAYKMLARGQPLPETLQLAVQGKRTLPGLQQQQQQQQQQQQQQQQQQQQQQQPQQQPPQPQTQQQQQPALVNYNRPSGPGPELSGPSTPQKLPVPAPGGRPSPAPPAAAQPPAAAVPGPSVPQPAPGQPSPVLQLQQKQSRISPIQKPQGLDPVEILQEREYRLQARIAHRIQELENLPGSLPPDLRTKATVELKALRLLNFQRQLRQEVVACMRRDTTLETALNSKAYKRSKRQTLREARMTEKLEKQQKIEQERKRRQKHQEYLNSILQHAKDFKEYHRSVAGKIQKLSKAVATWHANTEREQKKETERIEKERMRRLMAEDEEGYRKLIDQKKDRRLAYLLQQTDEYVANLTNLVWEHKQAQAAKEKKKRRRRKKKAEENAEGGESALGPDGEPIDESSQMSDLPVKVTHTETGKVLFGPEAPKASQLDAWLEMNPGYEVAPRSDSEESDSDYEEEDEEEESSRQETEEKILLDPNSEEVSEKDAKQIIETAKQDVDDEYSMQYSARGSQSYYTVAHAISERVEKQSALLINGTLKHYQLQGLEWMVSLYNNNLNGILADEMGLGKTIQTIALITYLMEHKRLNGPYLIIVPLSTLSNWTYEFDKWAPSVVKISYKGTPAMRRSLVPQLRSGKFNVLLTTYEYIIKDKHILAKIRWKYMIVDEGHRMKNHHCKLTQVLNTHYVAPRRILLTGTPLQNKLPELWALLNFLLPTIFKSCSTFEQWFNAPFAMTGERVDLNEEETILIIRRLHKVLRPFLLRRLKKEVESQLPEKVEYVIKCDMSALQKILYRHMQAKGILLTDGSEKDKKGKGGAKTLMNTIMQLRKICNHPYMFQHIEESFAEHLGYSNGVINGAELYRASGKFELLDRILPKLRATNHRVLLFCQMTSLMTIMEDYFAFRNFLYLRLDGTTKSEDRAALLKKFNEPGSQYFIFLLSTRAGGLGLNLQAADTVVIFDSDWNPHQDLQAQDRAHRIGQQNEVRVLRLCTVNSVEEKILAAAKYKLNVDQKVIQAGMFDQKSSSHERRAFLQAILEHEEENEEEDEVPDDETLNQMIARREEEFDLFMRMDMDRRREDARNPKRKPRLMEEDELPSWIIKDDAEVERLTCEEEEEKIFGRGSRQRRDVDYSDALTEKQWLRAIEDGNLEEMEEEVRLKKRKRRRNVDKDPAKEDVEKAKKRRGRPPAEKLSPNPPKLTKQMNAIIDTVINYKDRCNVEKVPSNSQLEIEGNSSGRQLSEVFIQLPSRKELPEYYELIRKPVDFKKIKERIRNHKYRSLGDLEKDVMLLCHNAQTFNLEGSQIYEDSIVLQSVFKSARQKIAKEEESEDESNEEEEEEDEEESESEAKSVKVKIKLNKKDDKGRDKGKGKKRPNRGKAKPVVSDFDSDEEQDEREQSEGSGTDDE

IC50 (BRM) [µM]	IC50 (BRG-1) [µM]	Compound
< 0.01	< 0.01	Cc1cc(-c2cccc(-c3csc(NC(=O)CNC(=O)c4ccn(C(C)(C)C)c4)n3)c2)ncn1 [Compound 22, 1-(tert-butyl)-N-(2-((4-(3-(6-methylpyrimidin-4-yl)phenyl)thiazol-2-yl)amino)-2-oxoethyl)-1H-pyrrole-3-carboxamide]
< 0.01	< 0.01	Cc1nccc(-c2cccc(-c3csc(NC(=O)CNC(=O)c4ccn(C(C)(C)C)c4)n3)c2)n1 [Compound 23, 1-(tert-butyl)-N-(2-((4-(3-(2-methylpyrimidin-4-yl)phenyl)thiazol-2-yl)amino)-2-oxoethyl)-1H-pyrrole-3-carboxamide]
> 0.01	> 0.01	CC(C)(C)n1ccc(C(=O)NCC(=O)Nc2nc(-c3cccc(-c4ccnc(CN)c4)c3)cs2)c1 [Compound 24, N-(2-((4-(3-(2-(aminomethyl)pyridin-4-yl)phenyl)thiazol-2-yl)amino)-2-oxoethyl)-1-(tert-butyl)-1H-pyrrole-3-carboxamide]
> 0.01	> 0.01	Cn1nc(-c2cccc(-c3csc(NC(=O)CNC(=O)c4ccn(C(C)(C)C)c4)n3)c2)cc1CO [Compound 26, 1-(tert-butyl)-N-(2-((4-(3-(5-(hydroxymethyl)-1-methyl-1H-pyrazol-3-yl)phenyl)thiazol-2-yl)amino)-2-oxoethyl)-1H-pyrrole-3-carboxamide]

The next lines start with the compound.

Compound	IC50 (BRM) [µM]	IC50 (BRG-1) [µM]
CN(C)CCN(C)c1cc(-c2cccc(-c3csc(NC(=O)CNC(=O)c4ccn(S(C)(=O)=O)c4)n3)c2)ccn1 [Compound 21, N-(2-((4-(3-(2-((2-(dimethylamino)ethyl)(methyl)amino)pyridin-4-yl)phenyl)thiazol-2-yl)amino)-2-oxoethyl)-1-(methylsulfonyl)-1H-pyrrole-3-carboxamide]	> 0.01	> 0.01
COC(C)(C)Cn1ccc(-c2cccc(-c3csc(NC(=O)CNC(=O)c4ccn(C(C)(C)C)c4)n3)c2)n1 [Compound 25, 1-(tert-butyl)-N-(2-((4-(3-(1-(2-methoxy-2-methylpropyl)-1H-pyrazol-3-yl)phenyl)thiazol-2-yl)amino)-2-oxoethyl)-1H-pyrrole-3-carboxamide]	> 0.01	> 0.1
COCC(C)(C)n1ccc(C(=O)NCC(=O)Nc2nc(-c3cccc(-c4ccn(C)n4)c3)cs2)c1 [Compound 27, 1-(1-methoxy-2-methylpropan-2-yl)-N-(2-((4-(3-(1-methyl-1H-pyrazol-3-yl)phenyl)thiazol-2-yl)amino)-2-oxoethyl)-1H-pyrrole-3-carboxamide]	> 0.1	> 1
Cn1ccc(-c2cccc(-c3csc(NC(=O)CNC(=O)c4ccn(CC(C)(C)O)c4)n3)c2)n1 [Compound 28, 1-(2-hydroxy-2-methylpropyl)-N-(2-((4-(3-(1-methyl-1H-pyrazol-3-yl)phenyl)thiazol-2-yl)amino)-2-oxoethyl)-1H-pyrrole-3-carboxamide]	> 1	> 1
COC(C)(C)Cn1ccc(C(=O)NCC(=O)Nc2nc(-c3cccc(-c4ccn(C)n4)c3)cs2)c1 [Compound 29, 1-(2-methoxy-2-methylpropyl)-N-(2-((4-(3-(1-methyl-1H-pyrazol-3-yl)phenyl)thiazol-2-yl)amino)-2-oxoethyl)-1H-pyrrole-3-carboxamide]	> 1	> 1
Cn1ccc(-c2cccc(-c3csc(NC(=O)CNC(=O)c4ccn(C(C)(C)CO)c4)n3)c2)n1 [Compound 30, 1-(1-hydroxy-2-methylpropan-2-yl)-N-(2-((4-(3-(1-methyl-1H-pyrazol-3-yl)phenyl)thiazol-2-yl)amino)-2-oxoethyl)-1H-pyrrole-3-carboxamide]	> 0.01	> 0.01
Cn1cncc1C(=O)NCC(=O)Nc1nc(-c2cccc(C#N)c2)cs1 [Compound 31, N-(2-((4-(3-cyanophenyl)thiazol-2-yl)amino)-2-oxoethyl)-1-methyl-1H-imidazole-5-carboxamide]	> 1	> 1

Source: US20230079819A1, “COMPOUNDS AND USES THEREOF” (Foghorn Therapeutics Inc., priority 2019, published 2023)
